In ChEMBL document CHEMBL4354835, “Selective Blockade of Neuronal BK (α + β4) Channels Preventing Epileptic Seizure” (J Med Chem, 2020):
The source made the active and inactive calls. The rule behind the calls is not given here.

What was measured:
Rattus norvegicus [1] = species on record: Rattus norvegicus; assay: (§1) Neuroprotective activity in PTZ-induced epileptic seizure Sprague-Dawley rat model assessed as inhibition of hippocampal destruction by measuring increase in Nissl stained granular neurons in contralateral hippocampus DG region compound infused into hippocampal region and 10 mins later injected with PTZ and measured after 3 days by Nissl staining based microscopic analysis; type: functional, organism-based
Rattus norvegicus [2] = species on record: Rattus norvegicus; assay: (§2) Inhibition of C-Fos expression in PTZ-induced epileptic seizures Sprague-Dawley rat model assessed as inhibition of FLI-positive pyramidal neurons in CA3 region of contralateral hippocampus at 10 uM compound infused into hippocampal region and 10 mins later injected with PTZ and measured after 2 hrs by immunohistochemistry; type: functional, organism-based
Rattus norvegicus [3] = species on record: Rattus norvegicus; assay: Effect on neuronal network in PTZ-induced epileptic seizures Sprague-Dawley rat model assessed as lowered PSD at delta wave band compound infused into hippocampal region and 10 mins later injected with PTZ and measured after 2 hrs by power spectral density analysis; type: functional, organism-based
Rattus norvegicus [4] = species on record: Rattus norvegicus; assay: as §1, with “pyramidal” for “granular”, “ipsilateral” for “contralateral”, “CA3” for “DG”; type: functional, organism-based
Rattus norvegicus [5] = species on record: Rattus norvegicus; assay: Effect on neuronal network in PTZ-induced epileptic seizures Sprague-Dawley rat model assessed as lowered PSD at beta wave band compound infused into hippocampal region and 10 mins later injected with PTZ and measured after 2 hrs by power spectral density analysis; type: functional, organism-based
Rattus norvegicus [6] = species on record: Rattus norvegicus; assay: Anticonvulsant activity against PTZ-induced epileptic seizures Sprague-Dawley rat model assessed as decrease in number of seizures at high stage (stage 4 and 5) compound infused into hippocampal region and 10 mins later injected with PTZ and measured for 2 hrs post-PTZ stimulation; type: functional, organism-based
Rattus norvegicus [7] = species on record: Rattus norvegicus; assay: as §2, with “granular” for “pyramidal”, “DG” for “CA3”, “ipsilateral” for “contralateral”; type: functional, organism-based
Homo sapiens [8] = species on record: Homo sapiens; assay: Inhibition of human BK alpha/human beta4 Q124A mutant expressed in HEK293T cells assessed as K+ fractional outward current at 10 uM at -80 holding potential by whole cell patch clamp technique relative to control; type: cell-based
Homo sapiens [9] = species on record: Homo sapiens; assay: Selectivity ratio of compound Kd for NT-495 fluorophore reagent labelled human BK beta4 Q124A mutant to compound Kd for NT-495 fluorophore reagent labelled human BK beta4 (45 to 166 residues) by microscale thermophoresis assay
Rattus norvegicus [10] = species on record: Rattus norvegicus; assay: as §1, with “pyramidal” for “granular”, “ipsilateral” for “contralateral”, “CA1” for “DG”; type: functional, organism-based
Rattus norvegicus [11] = species on record: Rattus norvegicus; assay: as §1, with “ipsilateral” for “contralateral”; type: functional, organism-based
[12] = molecular target: KCNMA1/KCNMB4 (Rattus norvegicus) (UniProt Q62976+Q9ESK8); assay: Inhibition of BK alpha/beta-4 in rat hippocampal pyramidal neurons assessed as inhibition of PTZ-induced action potential at -80 mV holding potential at 300 pA current injection measured after 10 mins by whole cell current clamp assay
Rattus norvegicus [13] = species on record: Rattus norvegicus; assay: Effect on neuronal network in PTZ-induced epileptic seizures Sprague-Dawley rat model assessed as lowered PSD at alpha wave band compound infused into hippocampal region and 10 mins later injected with PTZ and measured after 2 hrs by power spectral density analysis; type: functional, organism-based
Rattus norvegicus [14] = species on record: Rattus norvegicus; assay: as §2, with “granular” for “pyramidal”, “DG” for “CA3”; type: functional, organism-based
Rattus norvegicus [15] = species on record: Rattus norvegicus; assay: as §2, with “CA1” for “CA3”, “ipsilateral” for “contralateral”; type: functional, organism-based
Homo sapiens [16] = species on record: Homo sapiens; assay: Inhibition of human BK alpha/human beta-4 E104K mutant expressed in HEK293T cells assessed as K+ fractional outward current at 10 uM at -80 mV holding potential by whole cell patch clamp technique relative to control; type: cell-based

With `CC[C@H](C)[C@H](NC(=O)[C@H](CC(C)C)NC(=O)CNC(=O)[C@H](Cc1ccccc1)NC(=O)[C@H](CO)NC(=O)CN)C(=O)N[C@@H](CC(=O)O)C(=O)N[C@H](C(=O)N[C@@H](CCCCN)C(=O)N[C@H]1CSSC[C@@H]2NC(=O)[C@H](CCCCN)NC(=O)CNC(=O)[C@H](CCC(N)=O)NC(=O)CNC(=O)[C@H](CO)NC(=O)CNC(=O)[C@H]([C@@H](C)O)NC(=O)[C@H](C(C)C)NC(=O)[C@H](CCCCN)NC(=O)[C@H](CCCCN)NC(=O)[C@@H]3CSSC[C@@H](C(=O)N[C@@H](Cc4ccc(O)cc4)C(=O)O)N[C@@H](CCCNC(=N)N)C(=O)[C@H](CSSC[C@H](NC(=O)[C@H](CCC(=O)O)NC(=O)[C@H](CO)NC(=O)[C@H](CO)NC(=O)[C@H](C)NC(=O)[C@H](Cc4ccccc4)NC1=O)C(=O)N[C@@H](Cc1c[nH]c4ccccc14)C(=O)N[C@@H]([C@@H](C)O)C(=O)N[C@@H](C)C(=O)N3)N[C@@H](CCC(N)=O)C(=O)NC(=O)[C@H](CC(N)=O)NC(=O)[C@H](CC(N)=O)NC(=O)[C@H](CCC(N)=O)NC2=O)C(C)C` the Activity (Rattus norvegicus [1]) was “Active”, the inhibition (Rattus norvegicus [2]) was “Active” and the Activity (Rattus norvegicus [3]) was “Active”. The Activity (Rattus norvegicus [4]) was “Active”, the Activity (Rattus norvegicus [5]) was “Active” and the Activity (Rattus norvegicus [6]) was “Active”. For the same molecule, the inhibition (Rattus norvegicus [7]) was “Active”, the Ratio (Homo sapiens [8]) was 0.6 and the Selectivity ratio (Homo sapiens [9]) was 2. For the same molecule, the Activity (Rattus norvegicus [10]) was “Active”, the Activity (Rattus norvegicus [11]) was “Active” and the inhibition [12] was “Active”. The Activity (Rattus norvegicus [13]) was “Active”, the inhibition (Rattus norvegicus [14]) was “Active” and the inhibition (Rattus norvegicus [15]) was “Active”. It also gave a Ratio (Homo sapiens [16]) of 0.94.
